Test results as given in ChEMBL document CHEMBL1201862, “PubChem BioAssay data set” (2004).
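1) Cells in 96-well plates. 2) Compound, 48 h, 5 concentrations. 3) Linear interpolation between surrounding doses. 4) Unreached endpoint = highest concentration. At the GI50, growth is halved.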 Calls of active or inactive are those of the source. No stated cut-off is given here; in the data, active = GI50 up to about 1.1 µM and inactive = higher.

Experiments:
Experiment in all cases: inhibition of tumour cell growth, NCI panel, 48 h
[1] = tested on: OVCAR-4
[2] = tested on: SK-MEL-2
[3] = tested on: M19-MEL
[4] = tested on: SF-295
[5] = tested on: HOP-92
[6] = tested on: HCT-15
[7] = tested on: KM12
[8] = tested on: DLD-1
[9] = tested on: IGROV-1
[10] = tested on: DMS-114
[11] = tested on: SK-MEL-5
[12] = tested on: SW-620
[13] = tested on: SNB-19
[14] = tested on: A549
[15] = tested on: HL-60
[16] = tested on: A498
[17] = tested on: NCI-H460
[18] = tested on: U-251
[19] = tested on: LOX IMVI
[20] = tested on: Malme-3M
[21] = tested on: UACC-257
[22] = tested on: NCI-H23
[23] = tested on: SF-268
[24] = tested on: HT-29
[25] = tested on: EKVX
[26] = tested on: SF-539
[27] = tested on: OVCAR-5
[28] = tested on: RXF 631
[29] = tested on: RXF 393
[30] = tested on: RPMI-8226
[31] = tested on: DMS-273
[32] = tested on: HCT-116
[33] = tested on: SN12C
[34] = tested on: 786-0
[35] = tested on: CAKI-1
[36] = tested on: SNB-78
[37] = tested on: CCRF-CEM
[38] = tested on: K562
[39] = tested on: UO-31
[40] = tested on: ACHN
[41] = tested on: COLO 205
[42] = tested on: LXFL 529
[43] = tested on: OVCAR-8
[44] = tested on: KM-20L2
[45] = tested on: NCI-H226
[46] = tested on: MOLT-4
[47] = tested on: XF498
[48] = tested on: UACC-62
[49] = tested on: HCC 2998
[50] = tested on: M14
[51] = tested on: NCI-H522
[52] = tested on: OVCAR-3
[53] = tested on: TK-10
[54] = tested on: HOP-62
[55] = tested on: SK-OV-3
[56] = tested on: SR
[57] = tested on: HOP-18
[58] = tested on: SK-MEL-28

SMILES: c1ccc(C2Nc3ccccc3C3OCCCC23)cc1 (stereo not drawn)
- GI50 [1]: 47.3 µM (inactive)
- GI50 [2]: 30.7 µM (inactive)
- GI50 [3]: 42.6 µM (inactive)
- GI50 [4]: 16.6 µM (inactive)
- GI50 [5]: 26.4 µM (inactive)
- GI50 [6]: 27 µM
- GI50 [7]: 25.1 µM (inactive)
- GI50 [8]: 18.9 µM (inactive)
- GI50 [9]: 11.8 µM (inactive)
- GI50 [10]: 21.1 µM (inactive)
- GI50 [11]: 5.06 µM (inactive)
- GI50 [12]: 26 µM (inactive)
- GI50 [13]: 31.3 µM (inactive)
- GI50 [14]: 20.5 µM (inactive)
- GI50 [15]: 24.7 µM (inactive)
- GI50 [16]: 21.2 µM (inactive)
- GI50 [17]: > 10 µM (inactive)
- GI50 [18]: 17.8 µM (inactive)
- GI50 [19]: 12.8 µM (inactive)
- GI50 [20]: 30.7 µM (inactive)
- GI50 [21]: 30.9 µM (inactive)
- GI50 [22]: 32.8 µM (inactive)
- GI50 [23]: 25.6 µM (inactive)
- GI50 [24]: > 10 µM (inactive)
- GI50 [25]: 20.9 µM (inactive)
- GI50 [26]: 16.1 µM (inactive)
- GI50 [27]: 38.7 µM (inactive)
- GI50 [28]: 35.7 µM (inactive)
- GI50 [29]: 18.7 µM (inactive)
- GI50 [30]: 20.1 µM (inactive)
- GI50 [31]: 28.2 µM (inactive)
- GI50 [32]: 17.6 µM (inactive)
- GI50 [33]: 38.5 µM (inactive)
- GI50 [34]: 27.6 µM (inactive)
- GI50 [35]: 2.47 µM (inactive)
- GI50 [36]: 23.9 µM (inactive)
- GI50 [37]: 20.2 µM (inactive)
- GI50 [38]: 14.6 µM (inactive)
- GI50 [39]: 27 µM (inactive)
- GI50 [40]: 11.3 µM (inactive)
- GI50 [41]: 35.4 µM (inactive)
- GI50 [42]: 7.78 µM (inactive)
- GI50 [43]: 17.5 µM (inactive)
- GI50 [44]: 18.4 µM (inactive)
- GI50 [45]: 14.8 µM (inactive)
- GI50 [46]: 24.9 µM (inactive)
- GI50 [47]: 56.5 µM (inactive)
- GI50 [48]: 11.6 µM (inactive)
- GI50 [49]: 35.8 µM (inactive)

SMILES: CCOc1ccccc1NC(=O)CCc1nnc(S)[nH]1
- GI50 [1]: > 100 µM (inactive)
- GI50 [2]: > 100 µM (inactive)
- GI50 [50]: > 100 µM (inactive)
- GI50 [3]: > 100 µM (inactive)
- GI50 [51]: > 100 µM (inactive)
- GI50 [4]: > 100 µM (inactive)
- GI50 [5]: > 100 µM (inactive)
- GI50 [6]: > 100 µM
- GI50 [7]: > 100 µM (inactive)
- GI50 [8]: > 100 µM (inactive)
- GI50 [9]: > 100 µM (inactive)
- GI50 [10]: 59.7 µM (inactive)
- GI50 [11]: > 100 µM (inactive)
- GI50 [12]: > 100 µM (inactive)
- GI50 [13]: > 100 µM (inactive)
- GI50 [52]: > 100 µM (inactive)
- GI50 [14]: > 100 µM (inactive)
- GI50 [15]: > 100 µM (inactive)
- GI50 [53]: > 100 µM (inactive)
- GI50 [17]: > 100 µM (inactive)
- GI50 [18]: > 100 µM (inactive)
- GI50 [19]: > 100 µM (inactive)
- GI50 [20]: > 100 µM (inactive)
- GI50 [21]: > 100 µM (inactive)
- GI50 [22]: > 100 µM (inactive)
- GI50 [23]: > 100 µM (inactive)
- GI50 [24]: > 100 µM (inactive)
- GI50 [25]: > 100 µM (inactive)
- GI50 [26]: > 100 µM (inactive)
- GI50 [54]: > 100 µM (inactive)
- GI50 [27]: > 100 µM (inactive)
- GI50 [28]: > 100 µM (inactive)
- GI50 [29]: > 100 µM (inactive)
- GI50 [55]: > 100 µM (inactive)
- GI50 [30]: > 100 µM (inactive)
- GI50 [56]: > 100 µM (inactive)
- GI50 [32]: > 100 µM (inactive)
- GI50 [33]: > 100 µM (inactive)
- GI50 [34]: > 100 µM (inactive)
- GI50 [35]: > 100 µM (inactive)
- GI50 [36]: > 100 µM (inactive)
- GI50 [37]: > 100 µM (inactive)
- GI50 [38]: > 100 µM (inactive)
- GI50 [57]: > 100 µM (inactive)
- GI50 [39]: > 100 µM (inactive)
- GI50 [40]: > 100 µM (inactive)
- GI50 [41]: > 100 µM (inactive)
- GI50 [42]: > 100 µM (inactive)
- GI50 [43]: > 100 µM (inactive)
- GI50 [45]: > 100 µM (inactive)
- GI50 [46]: > 100 µM (inactive)
- GI50 [58]: > 100 µM (inactive)
- GI50 [48]: > 100 µM (inactive)
- GI50 [49]: > 100 µM (inactive)
